Measurements taken from patent US4479942A, “Tetrahydrofurnancarboxylic acid derivatives, processes for preparation thereof and pharmaceutical compositions thereof” (Fujisawa Pharmaceutical Co., Ltd., priority 1981, dated 1984).
Values after ≈ are worked out from the molar mass of the structure shown.

Experiments:
Candida albicans OUT6004 = assay: Antimicrobial activity test (in vitro), minimal inhibitory concentration against Candida, pulp assay method; format: cell-based; settings: malt agar
Excerpt: Antimicrobial activity test (in vitro):
Minimal inhibitory concentration (MIC) against Candida: (Candida albicans OUT6004)
Method: Pulp assay method

[1] = Solubilities to various solvents
Candida albicans FP-633 [2] = assay: Minimal inhibitory concentration against Candida albicans, agar dilution method (FP-633); format: cell-based; settings: FP633, malt agar
Excerpt: (§1) Antimicrobial activities of the compound in Example 98 [1-(6-amino-9H-purin-9-yl)-1,3-dideoxy-3-(O-methyl-L-tyrosylamino)-β- D-ribofuranuronic acid dihydrochloride monohydrate] against some species of Candida.
(§2) Minimal inhibitory concentration (MIC) against Candida albicans:
(§3) Method: Agar dilution method

Candida albicans FP-616 = assay: Minimal inhibitory concentration against Candida albicans, agar dilution method (FP-616); format: cell-based; settings: FP616, malt agar
Excerpt: as §1, §2, §3

Candida albicans FP-614 = assay: Minimal inhibitory concentration against Candida albicans, agar dilution method (FP-614); format: cell-based; settings: FP614, malt agar
Excerpt: as §1, §2, §3

Candida albicans FP-622 = assay: Minimal inhibitory concentration against Candida albicans, agar dilution method (FP-622); format: cell-based; settings: FP622, malt agar
Excerpt: as §1, §2, §3

Candida albicans FP-620 = assay: Minimal inhibitory concentration against Candida albicans, agar dilution method (FP-620); format: cell-based; settings: FP620, malt agar
Excerpt: as §1, §2, §3

Candida albicans FP-633 [3] = assay: Protective efficacy in experimental infection in mice; format: in vivo, mice (ddY-strains); settings: one hour after i.v. infection, one week after infection
Excerpt: Protective efficacy in experimental infection in mice:
In determining the protective efficacy against experimental infections of Candida in mice, the compound in Example 98 [1-(6-amino-9H-purin-9-yl)-1,3-dideoxy-3-(O-methyl-L-tyrosylamino)-β- D-ribofuranuronic acid dihydrochloride monohydrate] was suspended and diluted in sterile water to provide three concentrations of the drug for testing ddY-strains of mice aged 5 weeks and averaging 20 g in weight. Mice were used in groups of 5 mice each. One hour after the intravenous injection of 3.0×10^6 of Candida albicans FP-633 cells to each mouse, the drug solutions were administered subcutaneously or orally at the level mentioned below respectively.
One week after the infection, the test was considered complete and survival records of that day were made.

[4] = Toxicity, intraperitoneal administration into mice; format: in vivo; settings: more than 1,000 mg/kg
Candida albicans FP-618 = assay: Minimal inhibitory concentration against Candida albicans, agar dilution method (FP-618); format: cell-based; settings: FP618, malt agar
Excerpt: as §1, §2, §3

Nc1ncnc2c1ncn2[C@@H]1O[C@H](C(=O)O)[C@@H](NC(=O)C(N)Cc2ccc([N+](=O)[O-])cc2)[C@H]1O (mixture of isomers) [Example 73, 1-(6-Amino-9H-purin-9-yl)-1,3-dideoxy-3-[β-(4-nitrophenyl)-D,L-alanylamino]-β-D-ribofuranuronic acid]
MIC (Candida albicans OUT6004): 31 µg/mL

Nc1ncnc2c1ncn2[C@@H]1O[C@H](C(=O)O)[C@@H](NC(=O)[C@@H](N)Cc2ccccc2)[C@H]1O [Example 39, 1-(6-amino-9H-purin-9-yl)-1,3-dideoxy-3-(L-phenylalanylamino)-β-D-ribofuranuronic acid]
MIC (Candida albicans OUT6004): 31 µg/mL (≈ 72.5 µM)

COc1ccc(C[C@H](N)C(=O)N[C@H]2[C@@H](O)[C@H](n3cnc4c(N)ncnc43)O[C@@H]2C(=O)NCC(=O)O)cc1 [Example 55, N-Carboxymethyl-1-(6-amino-9H-purin-9-yl)-1,3-dideoxy-3-(O-methyl-L-tyrosylamino)-β-D-ribofuranuronamide]
MIC (Candida albicans OUT6004): 31 µg/mL (≈ 60.3 µM)

COc1ccc(C[C@H](N)C(=O)N[C@H]2[C@@H](O)[C@H](n3cnc4c(N)ncnc43)O[C@@H]2C(=O)O)cc1.Cl.Cl.O [Example 98, 1-(6-Amino-9H-purin-9-yl)-1,3-dideoxy-3-(O-methyl-L-tyrosylamino)-β-D-ribofuranuronic acid dihydrochloride monohydrate]
Solubility ([1]; acetone): Insoluble | Solubility ([1]; chloroform): Insoluble | Solubility ([1]; ethyl acetate): Insoluble | Solubility ([1]; methanol): Slightly soluble | Solubility ([1]; water): Slightly soluble | MIC (Candida albicans FP-633 [2]): 1.6 µg/mL | MIC (Candida albicans FP-616): 0.2 µg/mL | MIC (Candida albicans FP-614): 0.8 µg/mL | MIC (Candida albicans OUT6004): 16 µg/mL | MIC (Candida albicans FP-622): 3.1 µg/mL | MIC (Candida albicans FP-620): 0.2 µg/mL | Survival/infected (Candida albicans FP-633 [3]; oral, 10 mg/kg): 1/5 | Survival/infected (Candida albicans FP-633 [3]; oral, 30 mg/kg): 3/5 | Survival/infected (Candida albicans FP-633 [3]; subcutaneous, 5 mg/kg): 1/5 | Survival/infected (Candida albicans FP-633 [3]; subcutaneous, 15 mg/kg): 4/5 | Toxic symptom [4]: did not result in any toxic symtom | MIC (Candida albicans FP-618): 0.8 µg/mL
